The record followed here is patent publication US8357694B2, “Substituted 5,6-dihydro-6-phenylbenzo[F]isoquinolin-2-amine compounds” (ArQule, Inc., priority 2008, dated 2013).

Structures are written as SMILES. Structures can show the parent of a compound that is named as a salt.

In one data set the target is T1, FGFR2 kinase (Homo sapiens, UniProt P21802, N549H).
T1 construct: purchased Millipore 14-742
The data set is described as follows: fluorescent ELISA FGFR2 kinase assay (biochemical). The following applies: FGFR2 (N549H); read-out: Biochemical data (IC50-μM) FGFR2 (N549H). As for the experimental part:
The enzymatic assays described herein are conducted according to the following procedures from commercially available reagents. In one, non limiting, example, a fluorescent ELISA assay is used to identify and characterize inhibitors of FGFR2 kinase as described herein. This heterogeneous assay utilizes a biotinylated peptide with a tyrosine motif as a substrate and an anti-phospho-tyrosine antibody to measure phosphorylation of the substrate. […] The reaction is incubated for 60 minutes. As the reaction proceeds, FGFR2 phosphorylates tyrosines in the peptide. […] Peptides are captured for 30 minutes at room temperature, the phosphorylation of peptides continues during this phase. The reaction is stopped by washing the streptavidin-coated plate 6 times with TBST. […] Unbound anti-phospho-tyrosine antibody is removed by washing the streptavidin-coated plate 6 times with TBST. […] Unbound secondary antibody is removed by washing the streptavidin-coated plate 6 times with TBST.
For orientation: ELISA stands for enzyme-linked immunosorbent assay.

The subject of the next data set is SNU-16. The data set is described as follows: MTS assay, SNU-16. It is filed as cell-based. The following applies: Homo sapiens, SNU-16, SNU-16; read-out: MTS cell kill data (IC50-μM) SNU-16. A general note: Tetrazolium dyes change colour on reduction, which living cells bring about.

T1 sequence (P21802 456-770 N549H limits assumed): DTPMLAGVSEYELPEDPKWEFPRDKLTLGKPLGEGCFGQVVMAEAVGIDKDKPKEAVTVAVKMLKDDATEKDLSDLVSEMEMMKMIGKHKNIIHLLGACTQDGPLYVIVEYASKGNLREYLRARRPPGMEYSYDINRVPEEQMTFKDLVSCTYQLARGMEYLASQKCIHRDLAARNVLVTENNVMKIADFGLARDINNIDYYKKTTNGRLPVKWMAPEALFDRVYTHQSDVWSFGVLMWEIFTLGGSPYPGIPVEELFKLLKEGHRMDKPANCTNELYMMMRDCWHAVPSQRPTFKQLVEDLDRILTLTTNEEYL
Procedure for SNU-16: Cells were maintained at 37° C., 5% CO2 in DMEM media supplemented with 1% fetal bovine serum, penicillin/streptomycin and fungizone (Invitrogen). Cells were seeded into 96-well tissue culture plates at 3000 per well and cultured at 37° C. for 18 hours. Test compounds were dissolved and diluted to 300× in DMSO then diluted 1:40 in DMEM.

Regarding `CN(CCc1ccccc1)CCc1ccc(Nc2ncc3c(n2)-c2ccccc2[C@H](c2ccccc2F)C3)cc1` [Example 93, (R)-6-(2-fluorophenyl)-N-(4-(2-(methyl(phenethyl)amino)ethyl)phenyl)-5,6-dihydrobenzo[h]quinazolin-2-amine hydrochloride salt], the IC50 at FGFR2 kinase was 0.296 µM; in the data set on SNU-16, 3.25 µM. On to `Brc1ccc([C@@H]2Cc3cnc(Nc4ccc(CCN5CCCCC5)cc4)nc3-c3ccccc32)cc1` [Example 103, (S)-6-(4-bromophenyl)-N-(4-(2-(piperidin-1-yl)ethyl)phenyl)-5,6-dihydrobenzo[h]quinazolin-2-amine hydrochloride salt], for which the IC50 on FGFR2 kinase was found to be 0.178 µM; in the data set on SNU-16 it was 3.57 µM. Take `CN(CCc1ccc(Nc2ncc3c(n2)-c2ccccc2[C@H](c2ccccc2F)C3)cc1)C1CCCCC1` [Example 95, (R)-N-(4-(2-(cyclohexyl(methyl)amino)ethyl)phenyl)-6-(2-fluorophenyl)-5,6-dihydrobenzo[h]quinazolin-2-amine]: the IC50 on FGFR2 kinase amounted to 0.24 µM; in the data set on SNU-16, 1.13 µM. On to `OCCc1cc(Nc2ncc3c(n2)-c2ccccc2[C@H](c2ccccc2F)C3)ccc1F` [Example 169], for which, on FGFR2 kinase, the 50% inhibitory concentration (IC50) is 0.327 µM. Still for that read-out and setting: the same measure for `CCCCNCCc1cc(Nc2ncc3c(n2)-c2ccccc2[C@H](c2ccccc2F)C3)ccc1F` [Example 171, (R)-N-(3-(2-(butylamino)ethyl)-4-fluorophenyl)-6-(2-fluorophenyl)-5,6-dihydrobenzo[h]quinazolin-2-amine hydrochloride salt]: 0.0355 µM. As for `COCCN1CCN(CCc2ccc(Nc3ncc4c(n3)-c3ccccc3[C@H](c3ccc(Cl)c(Cl)c3)C4)cc2)CC1` [Example 115, (S)-6-(3,4-dichlorophenyl)-N-(4-(2-(4-(2-methoxyethyl)piperazin-1-yl)ethyl)phenyl)-5,6-dihydrobenzo[h]quinazolin-2-amine hydrochloride], the IC50 at FGFR2 kinase is 0.211 µM; with SNU-16 it was 3.03 µM. `COCCN1CCN(CCc2ccc(Nc3ncc4c(n3)-c3ccccc3[C@H](c3cccc(Br)c3)C4)cc2)CC1` [Example 77, (S)-6-(3-bromophenyl)-N-(4-(2-(4-(2-methoxyethyl)piperazin-1-yl)ethyl)phenyl)-5,6-dihydrobenzo[h]quinazolin-2-amine hydrochloride]: the IC50 on FGFR2 kinase is 0.118 µM; in the data set with SNU-16, 4.47 µM.

Turning to `Brc1ccc([C@H]2Cc3cnc(Nc4ccc(CCN5CCCCC5)cc4)nc3-c3ccccc32)cc1` [Example 108, (R)-6-(4-bromophenyl)-N-(4-(2-(piperidin-1-yl)ethyl)phenyl)-5,6-dihydrobenzo[h]quinazolin-2-amine hydrochloride salt], the IC50 at FGFR2 kinase stood at 0.354 µM. Consider `CN(CCc1ccc(Nc2ncc3c(n2)-c2ccccc2[C@H](c2ccc(F)cc2)C3)cc1)C1CCCCC1` [Example 102, (S)-N-(4-(2-(cyclohexyl(methyl)amino)ethyl)phenyl)-6-(4-fluorophenyl)-5,6-dihydrobenzo[h]quinazolin-2-amine], for which the figures for the IC50 on FGFR2 kinase and in the data set on SNU-16 were 0.26 µM and 3.22 µM, respectively. As to `COCCNCCc1ccc(Nc2ncc3c(n2)-c2ccccc2[C@H](c2ccccc2F)C3)cc1` [Example 94, (R)-6-(2-fluorophenyl)-N-(4-(2-(2-methoxyethylamino)ethyl)phenyl)-5,6-dihydrobenzo[h]quinazolin-2-amine hydrochloride salt], the IC50 amounted to 0.00999 µM at FGFR2 kinase and 0.895 µM in the data set with SNU-16. For the compound `Fc1ccc([C@@H]2Cc3cnc(Nc4ccc(CCN5CCCCC5)cc4)nc3-c3ccccc32)cc1` [Example 101, (S)-6-(4-fluorophenyl)-N-(4-(2-(piperidin-1-yl)ethyl)phenyl)-5,6-dihydrobenzo[h]quinazolin-2-amine], the melting point fell in the range of 185 to 188 °C. In addition, on FGFR2 kinase, the IC50 came to 0.177 µM. For the same compound, the IC50 with SNU-16 stood at 4.03 µM. The compound `OCc1cccc(Nc2ncc3c(n2)-c2ccccc2[C@H](c2ccccc2F)C3)c1` [Example 176, (R)-(3-(6-(2-fluorophenyl)-5,6-dihydrobenzo[h]quinazolin-2-ylamino)phenyl)methanol] came in with a melting point of 158 to 159 °C. The IC50 at FGFR2 kinase came out at 0.109 µM.

Consider `CCCCN(C)CCc1cc(Nc2ncc3c(n2)-c2ccccc2[C@H](c2ccccc2F)C3)ccc1F` [Example 172, (R)-N-(3-(2-(butyl(methyl)amino)ethyl)-4-fluorophenyl)-6-(2-fluorophenyl)-5,6-dihydrobenzo[h]quinazolin-2-amine hydrochloride salt], for which the IC50 at FGFR2 kinase came out at 0.0922 µM. With `Clc1ccc([C@@H]2Cc3cnc(Nc4cccc(CCN5CCCCC5)c4)nc3-c3ccccc32)cc1Cl` [Example 167, (S)-6-(3,4-dichlorophenyl)-N-(3-(2-(piperidin-1-yl)ethyl)phenyl)-5,6-dihydrobenzo[h]quinazolin-2-amine hydrochloride], in the data set with SNU-16, the IC50 came to 4.21 µM.

Consider `CCCCN(C)CCc1ccc(Nc2ncc3c(n2)-c2ccccc2[C@@H](c2ccc(Br)cc2)C3)cc1` [Example 107, (R)-6-(4-bromophenyl)-N-(4-(2-(butyl(methyl)amino)ethyl)phenyl)-5,6-dihydrobenzo[h]quinazolin-2-amine hydrochloride salt], for which the IC50 on FGFR2 kinase is 0.423 µM. Take `CN(CCc1ccc(Nc2ncc3c(n2)-c2ccccc2[C@H](c2ccc(Cl)c(Cl)c2)C3)cc1)C1CCCCC1` [Example 106, (S)-N-(4-(2-(cyclohexyl(methyl)amino)ethyl)phenyl)-6-(3,4-dichlorophenyl)-5,6-dihydrobenzo[h]quinazolin-2-amine hydrochloride salt]: the IC50 in the data set with SNU-16 amounted to 3.05 µM. `COCCN1CCN(CCc2ccc(Nc3ncc4c(n3)-c3ccccc3[C@H](c3ccc(F)cc3)C4)cc2)CC1` [Example 100, (S)-6-(4-fluorophenyl)-N-(4-(2-(4-(2-methoxyethyl)piperazin-1-yl)ethyl)phenyl)-5,6-dihydrobenzo[h]quinazolin-2-amine]: the melting point is 195 to 198 °C. Further, the IC50 with SNU-16 was found to be 7.36 µM. `COCCNCCc1ccc(Nc2ncc3c(n2)-c2ccccc2[C@H](c2ccc(F)c(F)c2)C3)cc1` [Example 86, (S)-6-(3,4-difluorophenyl)-N-(4-(2-(2-methoxyethylamino)ethyl)phenyl)-5,6-dihydrobenzo[h]quinazolin-2-amine hydrochloride]: the IC50 amounted to 0.267 µM on FGFR2 kinase and 5.13 µM in the data set on SNU-16.

For the compound `COCCN1CCN(CCc2ccc(Nc3ncc4c(n3)-c3ccccc3[C@@H](c3ccc(F)c(F)c3)C4)cc2)CC1` [Example 90, (R)-6-(3,4-difluorophenyl)-N-(4-(2-(4-(2-methoxyethyl)piperazin-1-yl)ethyl)phenyl)-5,6-dihydrobenzo[h]quinazolin-2-amine hydrochloride], in the data set on SNU-16, the IC50 was 14.6 µM.

Consider `CCCCN(C)CCc1ccc(Nc2ncc3c(n2)-c2ccccc2[C@H](c2ccc(Cl)c(Cl)c2)C3)cc1` [Example 105, (S)-N-(4-(2-(butyl(methyl)amino)ethyl)phenyl)-6-(3,4-dichlorophenyl)-5,6-dihydrobenzo[h]quinazolin-2-amine hydrochloride salt], for which the IC50 on FGFR2 kinase turned out to be 0.499 µM; in the data set on SNU-16 it was 5.03 µM. With `COCCNCCc1cc(Nc2ncc3c(n2)-c2ccccc2[C@H](c2ccccc2F)C3)ccc1F` [Example 173, (R)-N-(4-fluoro-3-(2-(2-methoxyethylamino)ethyl)phenyl)-6-(2-fluorophenyl)-5,6-dihydrobenzo[h]quinazolin-2-amine hydrochloride salt], the IC50 stood at 0.0359 µM on FGFR2 kinase and 0.519 µM with SNU-16.

For orientation: IC50 means the concentration at which inhibition is half-maximal. As usually defined, the melting point is the temperature, or range, at which the solid turns liquid.
